The supplement of paper PMC10307832

How the values were obtained:
Test in all cases: relative viability (nuclei count vs DMSO), 5 days (fraction); higher = more cells survive
[1] = compound: CCOc1cc2ncc(C#N)c(Nc3ccc(OCc4ccccn4)c(Cl)c3)c2cc1NC(=O)/C=C/CN(C)C [Neratinib] + CC(=O)c1c(C)c2cnc(Nc3ccc(N4CCNCC4)cn3)nc2n(C2CCCC2)c1=O [Palbociclib] (partner 0.5 µM)
Method in brief: (§1)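 Five library-drug doses in √10 steps were combined with a fixed anchor-drug dose, or a single drug was given alone, by pin tool to lung cancer cell lines in 1536-well plates the day after seeding. Nuclei were stained and counted after 5 days. Relative viability is the nuclei count in treated wells over that in vehicle wells, taken as the median of duplicate plates.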

[2] = compound: CCOc1cc2ncc(C#N)c(Nc3ccc(OCc4ccccn4)c(Cl)c3)c2cc1NC(=O)/C=C/CN(C)C [Neratinib] + CS(=O)(=O)N1CCN(Cc2cc3nc(-c4cccc5[nH]ncc45)nc(N4CCOCC4)c3s2)CC1 [Pictilisib] (partner 1 µM)
Method in brief: as §1

[3] = compound: CCOc1cc2ncc(C#N)c(Nc3ccc(OCc4ccccn4)c(Cl)c3)c2cc1NC(=O)/C=C/CN(C)C [Neratinib] + COc1cc2c(Oc3ccc(NC(=O)C4(C(=O)Nc5ccc(F)cc5)CC4)cc3F)ccnc2cc1OCCCN1CCOCC1 [Foretinib] (partner 0.25 µM)
Method in brief: as §1

[4] = compound: CCOc1cc2ncc(C#N)c(Nc3ccc(OCc4ccccn4)c(Cl)c3)c2cc1NC(=O)/C=C/CN(C)C [Neratinib] + CC(C)C[C@H](NC(=O)[C@H](Cc1ccccc1)NC(=O)c1cnccn1)B(O)O [Bortezomib] (partner 0.002 µM)
Method in brief: as §1

Cell Line	relative viability ([1]; first compound 0.01 µM)	relative viability ([1]; first compound 0.03162 µM)	relative viability ([1]; first compound 0.1 µM)	relative viability ([1]; first compound 0.3162 µM)	relative viability ([1]; first compound 1 µM)	relative viability ([2]; first compound 0.01 µM)	relative viability ([2]; first compound 0.03162 µM)	relative viability ([2]; first compound 0.1 µM)	relative viability ([2]; first compound 0.3162 µM)	relative viability ([2]; first compound 1 µM)	relative viability ([3]; first compound 0.01 µM)	relative viability ([3]; first compound 0.03162 µM)	relative viability ([3]; first compound 0.1 µM)	relative viability ([3]; first compound 0.3162 µM)	relative viability ([3]; first compound 1 µM)	relative viability ([4]; first compound 0.01 µM)	relative viability ([4]; first compound 0.03162 µM)	relative viability ([4]; first compound 0.1 µM)	relative viability ([4]; first compound 0.3162 µM)	relative viability ([4]; first compound 1 µM)
LOU-NH91	0.504	0.547	0.557	0.462	0.536	0.53	0.496	0.483	0.484	0.469	0.971	0.82	0.644	0.542	0.504	0.477	0.51	0.484	0.507	0.559
LU99A	0.377	0.434	0.356	0.385	0.329	0.31	0.311	0.285	0.263	0.207	0.959		0.73	0.462	0.376	1.11	1.18	0.762	0.927	0.413
LXF-289	0.633	0.631	0.554		0.58	0.785	0.821		0.759	0.418	1	1	0.961	0.995	0.709	1.02	0.998	0.93	1.03	0.975
NCI-H23	0.48	0.579	0.482	0.563	0.318	0.553	0.428	0.437	0.483	0.372		0.686		0.942	0.463	0.964	1.31	1.07	1.13	0.821
NCI-H322M	0.468	0.475	0.417	0.376	0.41	0.528	0.455	0.499	0.333	0.327	0.863	0.958		0.408	0.361	1.15	1.2	1.1	0.809	0.36
NCI-H441	0.244	0.192	0.177	0.163	0.161	0.508	0.482	0.456	0.313	0.191	1.01	1.04	1.07	0.856	0.492	0.661	0.381	0.372	0.54	0.265
NCI-H460	0.19	0.215	0.171	0.166	0.0933	0.325	0.384	0.294	0.323	0.32	1.12	1.15	0.862	1.04	0.87	1.22	1.36		1.27	0.587
NCI-H520	0.191	0.242		0.213	0.183	0.297	0.377	0.222	0.215	0.188	0.96		0.61		0.394	0.468	0.788	0.448	0.426	0.31
NCI-H647	0.446	0.545	0.393	0.344	0.188	0.437	0.506	0.456	0.364	0.183	1.36	1.34		1.11	0.601		0.914	0.586	0.558	0.664
NCI-H650	0.372	0.306	0.293	0.294	0.371	0.974	0.898	0.729		0.644	1.1	1.03	0.952	0.873	0.884	0.94	1.07	1.08		0.852
NCI-H661	0.437	0.388	0.323	0.318	0.298	0.507	0.399	0.303	0.24	0.272	1.05	1.06	0.836	0.489	0.364	0.779	0.697	0.675	0.446	0.24
NCI-H727	0.616	0.69		0.639	0.538	0.337	0.256		0.516	0.258	0.978	0.709	0.793	0.842	0.558	0.961	0.914		0.893	0.536
NCI-H838	0.223	0.23	0.216	0.176	0.176	0.466	0.54	0.473	0.375	0.25	1.12	1.08	0.885		0.656	0.921	1.12	0.729	0.627	0.328
NCI-H1355	0.38	0.41	0.348	0.302	0.274	0.485	0.482	0.395	0.365	0.232			0.874	0.842	0.366	1.23	1.3	1.16	1.02	0.752
NCI-H1437	0.322	0.329	0.293	0.268	0.341	0.474	0.553	0.356	0.325	0.343	1.32	1.26	1.18	1.19	1.28	0.639		0.565	0.385	0.475
NCI-H1650	0.349	0.313	0.3	0.262	0.276	0.565	0.682	0.513	0.531	0.517	1.1	1.29	0.744	0.657	0.602	0.207	0.201	0.206	0.228	0.197
NCI-H1651	0.542	0.558	0.499	0.45	0.467	0.661	0.633	0.422	0.449	0.343	0.789	0.867	0.715	0.593	0.464	1.07	1.13	0.86	0.902	0.852

Cell Line	relative viability ([1]; first compound 0.01 µM)	relative viability ([1]; first compound 0.03162 µM)	relative viability ([1]; first compound 0.1 µM)	relative viability ([1]; first compound 0.3162 µM)	relative viability ([1]; first compound 1 µM)	relative viability ([2]; first compound 0.01 µM)	relative viability ([2]; first compound 0.03162 µM)	relative viability ([2]; first compound 0.1 µM)	relative viability ([2]; first compound 0.3162 µM)	relative viability ([2]; first compound 1 µM)	relative viability ([3]; first compound 0.01 µM)	relative viability ([3]; first compound 0.03162 µM)	relative viability ([3]; first compound 0.1 µM)	relative viability ([3]; first compound 0.3162 µM)	relative viability ([3]; first compound 1 µM)	relative viability ([4]; first compound 0.01 µM)	relative viability ([4]; first compound 0.03162 µM)	relative viability ([4]; first compound 0.1 µM)	relative viability ([4]; first compound 0.3162 µM)	relative viability ([4]; first compound 1 µM)
NCI-H1666	0.597	0.711	0.579	0.625	0.774	0.549		0.327	0.218	0.271	0.973	0.912	0.754	0.646	0.721	0.894	0.896	0.767	0.609	0.662
NCI-H1734	0.409	0.395	0.241	0.328	0.28	0.5	0.464	0.428	0.432	0.346	0.953	0.887	0.683	0.775	0.469	1.27	0.996	0.912	0.934	0.74
NCI-H1755	0.457	0.463	0.33	0.456	0.432	0.475	0.455	0.407	0.36	0.209	0.876	0.988		0.972	0.745	1.08	0.934		1.04	0.958
NCI-H1915	0.538	0.537	0.504	0.528	0.414		1.03	0.93	0.904	0.881	1.08	1.08	1.08	1.05	0.709	1.06	1.03	0.952	0.874	0.962
NCI-H1975	0.658	0.739	0.522	0.337	0.176	0.328	0.372	0.209	0.104	0.143		1.02	0.972	0.421	0.174	0.36	0.428	0.423	0.252	0.191
NCI-H1993	0.768	0.578	0.522	0.466	0.568		0.772	0.721	0.796		0.82	0.662	0.6	0.567	0.657		1.11	0.763	0.646	
NCI-H2009	0.176	0.266	0.21	0.243	0.208	0.862	0.892	0.727	0.638	0.432	1.2	1.29	1.17	1.25	1.05	0.998	1.08	0.856	0.825	
NCI-H2023	0.395	0.363	0.308	0.322	0.348	0.209	0.233	0.233	0.228	0.177	0.797	0.803	0.415	0.454	0.257	1.08	1.08	0.802	0.995	0.69
NCI-H2085	0.468	0.456	0.467	0.419	0.382	0.526	0.436	0.462	0.408	0.373	0.801	1.08	0.761	0.64	0.31	1.05		0.869	1.06	0.76
NCI-H2087	0.212	0.271	0.217	0.182	0.14	0.989	0.899		0.799	0.492	1.36	1.24	1.05	0.742	0.536	0.775	0.867		0.782	0.857
NCI-H2126	0.33	0.347		0.344	0.309		0.495	0.431	0.414	0.365	1.37	1.36	1.13	1.09	0.536	1.2	1.13	1.05	1.07	0.821
NCI-H2228	0.666	0.95	0.765	0.655	0.169	0.365	0.346	0.301	0.442	0.199		0.95	0.715	0.646	0.204	1.16	1.03	1.01	0.765	0.295
NCI-H2347	0.401	0.41	0.341	0.494	0.479	0.603	0.547	0.503	0.582	0.524	0.686	0.909		0.586	0.711	1.01	1.12	0.808	0.721	1.11
NCI-H2405	0.56	0.579	0.534	0.567	0.419	0.522	0.547	0.515	0.399	0.29	1.06	1.08	0.922	1.04	0.57	1.05	1.09	0.708	0.998	0.954
NCI-H3122	0.205	0.208	0.188	0.181	0.148	0.634	0.589	0.474	0.619	0.214	1.05	0.985	0.94	0.958	0.171	1.05	1.1	0.98	1.06	0.775
PC-3 [JPC-3]	0.513	0.559	0.492	0.544	0.471	0.81	0.739	0.616	0.536	0.473	1.07	1.14	0.927	0.815	0.318	0.834	0.844	0.82	0.802	0.365
